Results on twelve molecules are retold here after ChEMBL document CHEMBL1201862, “PubChem BioAssay data set” (2004).

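96-well plates; 48 h exposure; 5 concentrations. Endpoints by linear interpolation between flanking doses. Not reached: highest tested concentration assigned. GI50 = concentration required for 50% inhibition of growth.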 Active and inactive are the calls of the source. Cut-off read from the data, not from the text of the source: active = GI50 up to about 1.1 µM and inactive = higher.

Test systems include K562; KM12; COLO 205; RXF 393; OVCAR-8; 786-0; SF-539; SNB-19; SNB-75; RPMI-8226; SN12C; NCI-H226; SR; NCI-H522; HT-29; OVCAR-4; SK-MEL-2; HOP-92.
Common to all, as to assay: NCI anticancer screen, dose series, 48 h

On to `COC(=O)c1c(C(=O)OC)c2cc(C(=O)c3ccccc3)ccn2c1Cl`, for which the GI50 with K562 is 29 µM (inactive); in the test with KM12, 24 µM (inactive); in the test with COLO 205, 35.8 µM (inactive); with RXF 393, 23.7 µM (inactive); in the test on OVCAR-8 it was 30 µM (inactive); with 786-0, 44.6 µM (inactive). Besides, the GI50 is 48.6 µM (inactive) in the test with SF-539; 34 µM (inactive) in the test with SNB-19; 12.9 µM (inactive) in the test on SNB-75; 16.3 µM (inactive) in the test with RPMI-8226; 49.8 µM (inactive) in the test with SN12C; 22.3 µM (inactive) with NCI-H226. Further, the GI50 with SR was 15.4 µM (inactive); with NCI-H522 it was 19.5 µM (inactive); in the test with HT-29, 47.1 µM (inactive); in the test with OVCAR-4 it was 31.2 µM (inactive); in the test with SK-MEL-2, 48.4 µM (inactive).
Regarding `O=C1c2ccccc2C(=O)C1(Cl)C1(S(=O)(=O)O)c2ccccc2-c2ccccc21`, the GI50 in the test on K562, in the test with KM12, in the test with COLO 205, in the test with RXF 393, with OVCAR-8 and in the test with 786-0 was > 100 µM (inactive) in each case. For the same molecule, the GI50 in the test with HOP-92, in the test with SF-539, in the test on SNB-75, in the test on RPMI-8226, with SN12C and in the test on NCI-H226 was > 100 µM (inactive) each time. Moreover, the GI50 in the test with SR, in the test with NCI-H522, with HT-29 and in the test on OVCAR-4 was > 100 µM (inactive) throughout.
Consider `CC(=O)c1ccc(NC(=O)C(=O)C(C(=O)c2ccc(Cl)c(Cl)c2)C2OC(=O)c3ccccc32)cc1` (stereo unspecified), for which the GI50 in the test with K562 was 23.3 µM (inactive); with KM12 it was 20.1 µM (inactive); in the test with COLO 205, 15.1 µM (inactive); in the test with RXF 393 it was 4.54 µM (inactive); in the test with OVCAR-8, 12.5 µM (inactive); with 786-0, 16.1 µM (inactive). Moreover, the GI50 is 24.5 µM (inactive) in the test on HOP-92; 25.5 µM (inactive) in the test on SNB-19; 21.6 µM (inactive) with SN12C; 5.15 µM (inactive) with NCI-H226; > 100 µM (inactive) with SR; 9.38 µM (inactive) in the test with NCI-H522. In addition, the GI50 is 25.3 µM (inactive) with HT-29 and 26.5 µM (inactive) in the test on OVCAR-4.
Regarding `COC(=O)CC(CNC(=O)OCc1ccccc1)OCc1ccc(OC)cc1` (stereo unspecified), the GI50 in the test with K562, with KM12, in the test on COLO 205, in the test on RXF 393, in the test with OVCAR-8 and in the test on 786-0 was > 100 µM (inactive) each time. Also, the GI50 with HOP-92, in the test on SF-539, in the test with SNB-19, with SNB-75, in the test on RPMI-8226 and in the test with SN12C was > 100 µM (inactive) in each case. For the same molecule, the GI50 was 66.2 µM (inactive) with NCI-H226; > 100 µM (inactive) with SR; > 100 µM (inactive) in the test on NCI-H522; 88.7 µM (inactive) in the test on OVCAR-4; > 100 µM (inactive) in the test with SK-MEL-2.
On to `COc1ccc(-c2cnoc2-c2ccc(OC)c(OC)c2)cc1OC`, for which the GI50 is 0.445 µM (active) with K562; 0.746 µM (active) in the test on KM12; 1.18 µM (inactive) in the test with COLO 205; 1.23 µM (inactive) with RXF 393; 3.1 µM (inactive) in the test on OVCAR-8; 1.64 µM (inactive) with 786-0. Moreover, the GI50 was 2.67 µM (inactive) in the test on HOP-92; 1.2 µM (inactive) with SF-539; 4.15 µM (inactive) in the test with SNB-19; 1.78 µM (inactive) with SNB-75; 1.54 µM (inactive) in the test with RPMI-8226; 3.04 µM (inactive) in the test on SN12C. The GI50 is 1.71 µM (inactive) in the test with NCI-H226; 0.318 µM (active) with SR; 0.556 µM (active) with NCI-H522; 1.27 µM (inactive) with HT-29; 18.9 µM (inactive) in the test on OVCAR-4; 1.08 µM (active) with SK-MEL-2.
For the molecule `Cc1c2n(c(=O)[nH]c1=O)C1OC(CO)C(O2)C1N=[N+]=[N-]` (stereo unspecified), the GI50 in the test on K562, in the test on KM12, in the test on COLO 205, in the test on OVCAR-8, with 786-0 and with HOP-92 was > 100 µM (inactive) throughout. Moreover, the GI50 with SF-539, with SNB-19, in the test with SNB-75, in the test on RPMI-8226, in the test with SN12C and in the test on NCI-H226 was > 100 µM (inactive) each time. In addition, the GI50 in the test with SR, in the test with NCI-H522, in the test with HT-29, with OVCAR-4 and with SK-MEL-2 was > 100 µM (inactive) throughout.
Consider `COc1ccc(C(=O)O)c2c(=O)c3ccccc3[nH]c12`, for which the GI50 in the test on K562, with KM12, in the test with COLO 205, in the test with RXF 393, with OVCAR-8 and in the test with 786-0 was > 100 µM (inactive) throughout. Also, the GI50 in the test on HOP-92, in the test with SF-539, in the test on SNB-19, in the test with RPMI-8226, with SN12C and in the test on NCI-H226 was > 100 µM (inactive) in each case. For the same molecule, the GI50 with SR, in the test with NCI-H522, in the test on HT-29, in the test on OVCAR-4 and with SK-MEL-2 was > 100 µM (inactive) throughout.
For `COc1ccc(C2S/C(=C\c3cccc(OC)c3)C(=O)N2NC(=O)Cc2ccccc2)cc1` (stereo unspecified), the GI50 with K562, in the test with KM12, with COLO 205, with RXF 393, with OVCAR-8 and in the test with 786-0 was > 100 µM (inactive) each time. For the same molecule, the GI50 with HOP-92 is > 100 µM (inactive); with SF-539, > 100 µM (inactive); in the test on SNB-75, > 100 µM (inactive); in the test on RPMI-8226 it was > 100 µM (inactive); with SN12C, > 100 µM (inactive); in the test with NCI-H226, 94.8 µM (inactive). Moreover, the GI50 in the test on SR, in the test on NCI-H522, in the test on HT-29, with OVCAR-4 and in the test on SK-MEL-2 was > 100 µM (inactive) each time.
As for `O=C1c2c(O)cccc2C(C(=O)CCCCCC(=O)C2c3cccc(O)c3C(=O)c3c(O)cccc32)c2cccc(O)c21`, the GI50 was 0.966 µM (active) in the test on K562; 1.07 µM (active) in the test on KM12; 1.98 µM (inactive) in the test with COLO 205; 1.53 µM (inactive) in the test on OVCAR-8; 10.6 µM (inactive) in the test on 786-0; 7.98 µM (inactive) in the test with HOP-92. In addition, the GI50 was 0.537 µM (active) in the test with SF-539; 0.973 µM (active) in the test with SNB-19; 1.03 µM (active) with SNB-75; 0.741 µM (active) with RPMI-8226; 1.04 µM (active) in the test on SN12C; 3.64 µM (inactive) with NCI-H226. For the same molecule, the GI50 with SR was 1.79 µM (inactive); in the test with NCI-H522, 0.638 µM (active); in the test on HT-29 it was 4.49 µM (inactive); in the test with OVCAR-4 it was 1.5 µM (inactive); in the test on SK-MEL-2, 1.03 µM (active).
As for `CC1=Nc2ccccc2NC(c2ccoc2)C1` (stereo unspecified), the GI50 in the test with K562, in the test on KM12, with COLO 205, with RXF 393, in the test with OVCAR-8 and with 786-0 was > 100 µM (inactive) each time. Moreover, the GI50 in the test with HOP-92, in the test with SF-539, in the test with SNB-19, in the test on SNB-75, with RPMI-8226 and with SN12C was > 100 µM (inactive) in each case. Moreover, the GI50 in the test with NCI-H226, in the test on SR, with NCI-H522, in the test with HT-29, with OVCAR-4 and in the test with SK-MEL-2 was > 100 µM (inactive) each time.
In the case of `CCCCCCCCOCC(COC(=O)CCCCCCC)OC(=O)CCCCCCC` (stereo unspecified), the GI50 was > 100 µM (inactive) in the test on K562; > 100 µM (inactive) with COLO 205; > 100 µM (inactive) in the test with OVCAR-8; > 100 µM (inactive) with 786-0; 51.5 µM (inactive) in the test with HOP-92; > 100 µM (inactive) in the test on SNB-19. Also, the GI50 in the test on RPMI-8226 is > 100 µM (inactive); with SN12C, > 100 µM (inactive); in the test with NCI-H226, > 100 µM (inactive); with SR it was 53 µM (inactive); in the test with HT-29, > 100 µM (inactive); in the test on OVCAR-4, > 100 µM (inactive).
`O=C1/C(=C/c2ccccc2)CN(C(=O)C(F)(F)F)C/C1=C\c1ccccc1`: the GI50 in the test on K562 is 0.467 µM (active); with KM12, 1.54 µM (inactive); in the test on COLO 205, 2.42 µM (inactive); in the test with RXF 393, 1.84 µM (inactive); in the test on OVCAR-8, 1.64 µM (inactive); with 786-0, 1.68 µM (inactive). Also, the GI50 in the test with SF-539 is 1.86 µM (inactive); with SNB-19 it was 4.28 µM (inactive); in the test on SNB-75, 6.58 µM (inactive); in the test on RPMI-8226 it was 0.165 µM (active); with SN12C, 1.7 µM (inactive); with SR, 2.02 µM (inactive). In addition, the GI50 was 2.74 µM (inactive) in the test on NCI-H522, 1.3 µM (inactive) in the test with HT-29, 2.44 µM (inactive) in the test on OVCAR-4 and 7.98 µM (inactive) in the test on SK-MEL-2.
